One series concerns HepG2. Nature of the series: MTT anti-proliferative assay, HepG2. The settings on record: Homo sapiens, HepG2, 48 h, read-out: IC50 HepG2.
Another series relates to Hela. Nature of the series: MTT anti-proliferative assay, Hela. To be noted: Homo sapiens, 48 h, read-out: IC50 Hela.
A further series deals with WI-38. Briefly: MTT cytotoxicity assay, normal cell line WI-38. The settings on record: Homo sapiens, WI-38, 48 h, read-out: IC50 WI-38.
In a further series the test system is A549. Nature of the series: MTT anti-proliferative assay, A549. To be noted: Homo sapiens, A549, 48 h, read-out: IC50 A549.
The next series relates to MCF-7. Nature of the series: MTT anti-proliferative assay, MCF-7. The settings on record: Homo sapiens, MCF7, 48 h, read-out: IC50 MCF-7.

Protocol for A549: (§1) The antitumor bioactivities of the tittle compounds in vitro were firstly evaluated against four different human tumor cell lines [breast lung cancer (A549), cervical cancer (Hela), liver cancer (HepG2), breast cancer (MCF-7)] via MTT assay, and a normal cell line [human lung fibroblast (WI-38)] was applied to assess the safety of the synthesized compounds. […] In this study, the tested compounds were diluted to the required concentration with culture medium, and growth inhibitory effects against the cell lines of the tittle compounds were determined by MTT colorimetric assay. […] The microplate reader was adopted to record the absorbance at 490 nm for each well of the plates.
Protocol for Hela: as §1
Protocol for HepG2: as §1
Protocol for MCF-7: as §1
Protocol for WI-38: as §1

The compound `Cc1cc(C)cc(C(=O)NCCCCCC(=O)NCCO)c1` [b7, N-(6-((2-hydroxyethyl)amino)-6-oxohexyl)-3,5-dimethylbenzamide] gave a melting point of 110.1 to 111.8 °C. For the same compound, in the series on HepG2, the IC50 is 88 ± 9.39 µM. Also, the IC50 in the series on Hela is 96.8 ± 2.09 µM. The IC50 with WI-38 is 184 ± 7.16 µM. The IC50 in the series with A549 is 32.3 ± 3.13 µM. For the same compound, in the series with MCF-7, the IC50 worked out at 83.6 ± 23.2 µM.
Consider `CC(O)CNC(=O)CCCCCNC(=O)c1ccc2ccccc2c1` (stereo not drawn) [a11, N-(6-((2-hydroxypropyl)amino)-6-oxohexyl)-2-naphthamide], for which the melting point fell in the range of 111.6 to 113.6 °C. Further, in the series with HepG2, the IC50 was determined as 29.2 ± 3.22 µM. Also, in the series with Hela, the IC50 came out at 21.8 ± 2.42 µM. In addition, the IC50 in the series on WI-38 was 109 ± 4.63 µM. Besides, in the series with A549, the IC50 was 26.6 ± 2.81 µM. In addition, the concentration for half-maximal inhibition (IC50) in the series with MCF-7 came to 38.4 ± 2.12 µM.
`O=C(CCCCCNC(=O)c1ccc(F)cc1)NCCO` [b2, 4-fluoro-N-(6-((2-hydroxyethyl)amino)-6-oxohexyl) benzamide] yielded a melting point of 131.2 to 132.9 °C.
`Cc1ccc(C(=O)NCCCCCC(=O)NCC(C)O)cc1` (stereo not drawn) [a6, N-(6-((2-hydroxypropyl)amino)-6-oxohexyl)-4-methylbenzamide] registered a melting point of 114.2 to 116.8 °C. In addition, the IC50 in the series with HepG2 turned out to be 74.9 ± 2.05 µM. Moreover, in the series on Hela, the half-inhibitory concentration (IC50) came to 19.6 ± 3.92 µM. Also, the IC50 in the series on WI-38 stood at 97.2 ± 6.36 µM. The IC50 in the series with A549 came to 39.2 ± 3.88 µM. In addition, the IC50 in the series on MCF-7 was 44.8 ± 2.01 µM.
Take `CC(O)CNC(=O)CCCCCNC(=O)c1ccc([N+](=O)[O-])cc1` (stereo not drawn) [a7, N-(6-((2-hydroxypropyl)amino)-6-oxohexyl)-4-nitrobenzamide]: the melting point fell in the range of 124.3 to 126.1 °C. In the series with HepG2, the IC50 was found to be 88.3 ± 8.64 µM. The 50% inhibitory concentration (IC50) in the series on Hela was found to be 25.8 ± 8.93 µM. Also, the IC50 in the series with WI-38 worked out at 211 ± 4.32 µM. In addition, the half-inhibitory concentration (IC50) in the series with A549 amounted to 43.8 ± 4.82 µM. Also, the IC50 in the series with MCF-7 was found to be 58.7 ± 3.86 µM.
As to `O=C(CCCCCNC(=O)c1ccc(Br)cc1)NCCO` [b4, 4-bromo-N-(6-((2-hydroxyethyl)amino)-6-oxohexyl) benzamide], the melting point was 115.7 to 118.7 °C.
As for `CC(O)CNC(=O)CCCCCNC(=O)c1ccc(-c2ccccc2)cc1` (stereo not drawn) [a10, N-(6-((2-hydroxypropyl)amino)-6-oxohexyl)-[1, 1’-biphenyl]-4-carboxamide], the melting point lay in the range of 140.3 to 142.6 °C. Moreover, the IC50 in the series with HepG2 is 26.8 ± 3.22 µM. The IC50 in the series with Hela was 38.4 ± 1.01 µM. Also, in the series with WI-38, the IC50 was 126 ± 7.83 µM. Moreover, the IC50 with A549 amounted to 19.8 ± 2.11 µM. In the series on MCF-7, the IC50 amounted to 48.4 ± 2.21 µM.
`O=C(CCCCCNC(=O)c1ccc(I)cc1)NCCO` [b5, N-(6-((2-hydroxyethyl)amino)-6-oxohexyl)-4-iodobenzamide]: the melting point fell in the range of 150.4 to 150.9 °C. For the same compound, the IC50 in the series on HepG2 is 90.3 ± 8.18 µM. In addition, the half-inhibitory concentration (IC50) in the series on Hela was determined as 61 ± 5.31 µM. In the series on WI-38, the IC50 is 130 ± 5.02 µM. Moreover, the IC50 in the series on A549 turned out to be 48.3 ± 0.92 µM. Moreover, the IC50 in the series on MCF-7 was 64.5 ± 11.1 µM.
Compound `O=C(CCCCCNC(=O)c1ccc2ccccc2c1)NCCO` [b12, N-(6-((2-hydroxyethyl)amino)-6-oxohexyl)-2-naphthamide] yielded a melting point of 115.1 to 117.8 °C. Besides, the IC50 in the series on HepG2 stood at 37.6 ± 6.14 µM. In the series on Hela, the IC50 was found to be 76.4 ± 6.78 µM. Also, the IC50 in the series with WI-38 is 161 ± 8.64 µM. Further, in the series on A549, the IC50 came to 33.4 ± 2.12 µM. Besides, in the series with MCF-7, the IC50 is 98.7 ± 7.67 µM.
`CN(C)c1ccc(C(=O)NCCCCCC(=O)NCCO)cc1` [b11, 4-(dimethylamino)-N-(6-((2-hydroxyethyl)amino)-6-oxohexyl) benzamide] gave a melting point of 120.4 to 122.3 °C.
On to `CC(O)CNC(=O)CCCCCNC(=O)c1ccc(I)cc1` (stereo not drawn) [a5, N-(6-((2-hydroxypropyl)amino)-6-oxohexyl)-4-iodobenzamide], for which the melting point was 148.7 to 150.2 °C. Further, the IC50 with HepG2 stood at 68.9 ± 1.95 µM. In the series with Hela, the IC50 came out at 35.8 ± 2.43 µM. Further, in the series with WI-38, the IC50 is 158 ± 3.16 µM. For the same compound, the IC50 in the series with A549 was 45.6 ± 2.81 µM. For the same compound, in the series with MCF-7, the concentration for half-maximal inhibition (IC50) came to 63.2 ± 4.32 µM.
`O=C(CCCCCNC(=O)c1ccccc1)NCCO` [b1, N-(6-((2-hydroxyethyl)amino)-6-oxohexyl) benzamide] displayed a melting point of 111.2 to 114.5 °C. Moreover, the IC50 with HepG2 was 84.5 ± 1.33 µM. In addition, the IC50 with Hela stood at 90.4 ± 2.21 µM. The IC50 in the series with WI-38 was determined as 194 ± 5.32 µM. The IC50 with A549 was found to be 33.1 ± 0.96 µM. In the series with MCF-7, the IC50 amounted to 94.3 ± 15.3 µM.
On to `O=C(CCCCCNC(=O)c1ccc(C(F)(F)F)cc1)NCCO` [b9, N-(6-((2-hydroxyethyl)amino)-6-oxohexyl)-4-(trifluoromethyl) benzamide], for which the melting point lay within 105 to 106.3 °C.
`Cc1ccc(C(=O)NCCCCCC(=O)NCCO)cc1` [b6, N-(6-((2-hydroxyethyl)amino)-6-oxohexyl)-4-methylbenzamide]: the IC50 was determined as 77.2 ± 4.43 µM with HepG2; 59.7 ± 2.67 µM in the series with Hela; 144 ± 8.05 µM in the series with WI-38; 26.9 ± 4.79 µM in the series on A549; 99.2 ± 1.9 µM in the series with MCF-7.
`CC(O)CNC(=O)CCCCCNC(=O)c1ccc(C(F)(F)F)cc1` (stereo not drawn) [a9, N-(6-((2-hydroxypropyl)amino)-6-oxohexyl)-4-(trifluoromethyl) benzamide] returned a melting point of 106.3 to 108.1 °C.
In the case of `CC(O)CNC(=O)CCCCCNC(=O)c1ccc(Br)cc1` (stereo not drawn) [a4, 4-bromo-N-(6-((2-hydroxypropyl)amino)-6-oxohexyl) benzamide], the melting point fell in the range of 112.4 to 114.7 °C.
`CC(O)CNC(=O)CCCCCNC(=O)c1ccccc1Cl` (stereo not drawn) [a3, 2-chloro-N-(6-((2-hydroxypropyl)amino)-6-oxohexyl) benzamide] returned a melting point of 110.2 to 113.6 °C.
Consider `CC(O)CNC(=O)CCCCCNC(=O)c1ccc2c(c1)OCO2` (stereo not drawn) [a12, N-(6-((2-hydroxypropyl)amino)-6-oxohexyl) benzo [d][1,3] dioxole-5-carboxamide], for which the melting point fell in the range of 123.6 to 125.3 °C. For the same compound, the IC50 with HepG2 worked out at 37.6 ± 2.89 µM. For the same compound, the IC50 in the series on Hela was determined as 35.6 ± 0.89 µM. The IC50 in the series on WI-38 turned out to be 147 ± 3.82 µM. The half-maximal inhibitory concentration (IC50) in the series on A549 turned out to be 28.4 ± 2.01 µM. For the same compound, the IC50 with MCF-7 was found to be 44.6 ± 4.62 µM.
In turn, `CC(O)CNC(=O)CCCCCNC(=O)c1ccc(Cl)cc1` (stereo not drawn) [a2, 4-chloro-N-(6-((2-hydroxypropyl)amino)-6-oxohexyl) benzamide] returned a melting point of 93.9 to 95.7 °C.
On the same count and under the same terms, under `CC(O)CNC(=O)CCCCCNC(=O)c1ccc(F)cc1` (stereo not drawn) [a1, 4-fluoro-N-(6-((2-hydroxypropyl)amino)-6-oxohexyl) benzamide] stands 99.3 to 100.8 °C.
Compound `O=C(CCCCCNC(=O)c1ccc(Cl)cc1)NCCO` [b3, 4-chloro-N-(6-((2-hydroxyethyl)amino)-6-oxohexyl) benzamide] gave a melting point of 112.4 to 115.9 °C.
`O=C(CCCCCNC(=O)c1ccc2c(c1)OCO2)NCCO` [b10, N-(6-((2-hydroxyethyl)amino)-6-oxohexyl) benzo[d][1,3] dioxole-5-carboxamide]: the melting point fell in the range of 94.5 to 96.7 °C. The IC50 in the series with HepG2 stood at 33.9 ± 2.71 µM. For the same compound, in the series on Hela, the IC50 is 38.1 ± 1.28 µM. For the same compound, the concentration for half-maximal inhibition (IC50) in the series on WI-38 was 193 ± 6.53 µM. The IC50 with A549 stood at 28.2 ± 0.87 µM. In addition, in the series with MCF-7, the 50% inhibitory concentration (IC50) was found to be 93.2 ± 3.53 µM.

The values above are taken from paper PMC7174758, “Synthesis and Biological Evaluation of HDAC Inhibitors With a Novel Zinc Binding Group” (Frontiers in Chemistry, 2020).
